Data as given in the supplement of paper PMC10307832.

Key:
Test in all cases: relative viability (nuclei count vs DMSO), 5 days (fraction); higher = more cells survive
[1] = compound: CC[C@@H](C)CNCC(=O)N1CCC2=C([C@@H]1COC3=CC=CC(=C3)C)C=CS2 [RU-SKI 43] + CC(=O)Nc1cccc(-n2c(=O)n(C3CC3)c(=O)c3c(Nc4ccc(I)cc4F)n(C)c(=O)c(C)c32)c1 [Trametinib] (partner 0.02 µM)
How it was run: (§1)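 Lung cancer cell lines in 1536-well plates got either a single drug or a fixed anchor-drug dose together with five library-drug doses (not always all listed) in √10 steps, by pin tool, on the day after seeding. Nuclei were counted after 5 days, and relative viability is the treated-to-vehicle ratio of nuclei counts. Values are medians of duplicate plates.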

[2] = compound: CC[C@@H](C)CNCC(=O)N1CCC2=C([C@@H]1COC3=CC=CC(=C3)C)C=CS2 [RU-SKI 43] + C[C@@H](Oc1cc(-c2cnn(C3CCNCC3)c2)cnc1N)c1c(Cl)ccc(F)c1Cl [Crizotinib] (partner 1 µM)
How it was run: as §1

[3] = compound: CCc1c2c(nc3ccc(OC(=O)N4CCC(N5CCCCC5)CC4)cc13)-c1cc3c(c(=O)n1C2)COC(=O)[C@]3(O)CC [Irinotecan] + O=C(c1cc(Cc2n[nH]c(=O)c3ccccc23)ccc1F)N1CCN(C(=O)C2CC2)CC1 [Olaparib] (partner 8 µM)
How it was run: as §1

[4] = compound: CCc1c2c(nc3ccc(OC(=O)N4CCC(N5CCCCC5)CC4)cc13)-c1cc3c(c(=O)n1C2)COC(=O)[C@]3(O)CC [Irinotecan] + CS(=O)(=O)N1CCN(Cc2cc3nc(-c4cccc5[nH]ncc45)nc(N4CCOCC4)c3s2)CC1 [Pictilisib] (partner 1 µM)
How it was run: as §1

Cell Line | relative viability ([1]; first compound 0.1 µM) | relative viability ([1]; first compound 0.3162 µM) | relative viability ([1]; first compound 1 µM) | relative viability ([1]; first compound 3.162 µM) | relative viability ([1]; first compound 10 µM) | relative viability ([2]; first compound 0.1 µM) | relative viability ([2]; first compound 0.3162 µM) | relative viability ([2]; first compound 1 µM) | relative viability ([2]; first compound 3.162 µM) | relative viability ([2]; first compound 10 µM) | relative viability ([3]; first compound 0.6325 µM) | relative viability ([3]; first compound 2 µM) | relative viability ([3]; first compound 6.325 µM) | relative viability ([3]; first compound 20 µM) | relative viability ([4]; first compound 0.6325 µM) | relative viability ([4]; first compound 2 µM) | relative viability ([4]; first compound 6.325 µM) | relative viability ([4]; first compound 20 µM)
NCI-H2023 | 0.585 | 0.643 | 0.547 | 0.685 | 0.528 | 0.623 | 0.685 | 0.602 | 0.58 | 0.428 | 0.302 | 0.225 | 0.14 | 0.073 | 0.148 | 0.204 | 0.113 | 0.0527
PC-14 | 0.637 | 0.824 | 0.82 | 0.652 | 0.533 | 0.827 | 0.891 | 0.92 | 0.804 | 0.749 | 0.129 | 0.163 | 0.167 | 0.123 | 0.652 | 0.425 | 0.257 | 0.194
NCI-H1734 | 0.656 | 0.758 | 0.724 | 0.695 | 0.622 | 0.724 | 0.709 | 0.745 | 0.652 | 0.547 |  | 0.184 | 0.143 | 0.179 | 0.298 | 0.446 | 0.16 | 0.184
NCI-H727 |  | 0.388 | 0.449 | 0.372 | 0.374 | 0.688 | 0.975 | 0.796 | 0.872 | 0.7 | 0.723 | 0.454 | 0.66 | 0.656 | 0.277 | 0.353 | 0.35 | 0.289
